Assay [1] addresses 5-hydroxytryptamine receptor 2B (Homo sapiens, UniProt P41595).
Assay [2] addresses T1, 5-hydroxytryptamine receptor 2C (Homo sapiens, UniProt P28335).
T1 sequence (P28335 whole entry): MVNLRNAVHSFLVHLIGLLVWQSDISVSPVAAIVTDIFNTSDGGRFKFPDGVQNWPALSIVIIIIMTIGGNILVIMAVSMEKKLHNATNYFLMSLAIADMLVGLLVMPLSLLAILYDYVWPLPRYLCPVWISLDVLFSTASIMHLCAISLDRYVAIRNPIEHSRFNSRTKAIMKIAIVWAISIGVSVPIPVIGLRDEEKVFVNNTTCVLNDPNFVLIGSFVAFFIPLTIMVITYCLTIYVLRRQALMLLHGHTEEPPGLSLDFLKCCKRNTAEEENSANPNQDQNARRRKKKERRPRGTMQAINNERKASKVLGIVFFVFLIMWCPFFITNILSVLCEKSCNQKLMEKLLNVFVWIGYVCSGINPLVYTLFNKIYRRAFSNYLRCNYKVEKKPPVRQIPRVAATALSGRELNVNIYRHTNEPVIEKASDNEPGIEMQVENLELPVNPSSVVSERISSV

Sequence of 5-hydroxytryptamine receptor 2B (P41595 whole entry): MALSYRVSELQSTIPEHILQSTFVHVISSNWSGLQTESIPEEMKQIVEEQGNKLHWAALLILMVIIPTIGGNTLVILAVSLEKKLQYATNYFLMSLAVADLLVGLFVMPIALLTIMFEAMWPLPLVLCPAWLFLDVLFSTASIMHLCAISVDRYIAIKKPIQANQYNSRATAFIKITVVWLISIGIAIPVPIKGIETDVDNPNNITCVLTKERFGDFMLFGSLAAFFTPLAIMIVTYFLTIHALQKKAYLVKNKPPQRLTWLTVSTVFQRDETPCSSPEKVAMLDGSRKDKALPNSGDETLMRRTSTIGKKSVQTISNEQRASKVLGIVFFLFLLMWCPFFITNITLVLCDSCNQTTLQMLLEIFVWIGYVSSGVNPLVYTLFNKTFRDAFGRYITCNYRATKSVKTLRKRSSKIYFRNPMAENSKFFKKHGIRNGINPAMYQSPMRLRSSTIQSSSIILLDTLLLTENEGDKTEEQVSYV

The term Ki denotes the dissociation constant of the complex between target and ligand, obtained from inhibition or displacement. In turn, `NCCc1c[nH]c2ccc(C(N)=O)cc12` [[3H]-5-carboxamidotryptamine] showed a Ki in assay [1] of 15.5 nM.
As to `COc1ccc2c(c1[C@@H]1CCNC1)CCC2` [ORG-37684], the Ki was 6.76 nM in assay [2] and 11 nM in assay [1].
The like results for `C[C@H](N)Cc1cccc(C(F)(F)F)c1` [Norfenfluramine (+)] were, in that order, 170 nM and 8.71 nM.
For `CCCN(CCC)C1CCc2cccc(O)c2C1` (configuration not stated), the affinity in assay [1] corresponds to a Ki of 891 nM.
With `c1ccc2nc(N3CCNCC3)ccc2c1` [2-Piperazin-1-yl-quinoline (Quipazine)], the inhibition constant Ki came to 339 nM in assay [2] and 178 nM in assay [1].
On the same counts, the results for `Cc1[nH]c2ccc(O)cc2c1CCN` are 1200 nM and 170 nM.
On the same counts, the results for `Clc1cncc(N2CCNCC2)n1` [L-630,571] are 214 nM and 295 nM.
The like results for `COc1cc(CC(C)N)c(OC)cc1I` (configuration not stated) [[125I]2,5-dimethoxy-4-iodoamphetamine] were, in that order, 7.94 nM and 1.41 nM.
In assay [2], `CC(N)Cc1c[nH]c2ccc(OCc3cccs3)cc12` (configuration not stated) [NSC_5311036] registered a Ki of 93.3 nM.
With `Cn1cc(CCN)c2cc(O)ccc21` [5-HT,omega-N-Me], the Ki in assay [2] worked out at 11.5 nM; in assay [1], 2 nM.
Consider `NCCc1c[nH]c2ccccc12` [1H-indole-3-ethanamine], for which the results for the Ki in assay [2] and in assay [1] were 45.7 nM and 29.5 nM, respectively.
The like results for `CN1CCc2cc(Cl)c(O)cc2[C@@H](c2ccccc2)C1` [SCH 23390,R(+)] were, in that order, 40.7 nM and 70.8 nM.
The like results for `FC(F)(F)c1ccc(N2CCNCC2)nc1Cl` [2-Chloro-3-(trifluoromethyl)-6-(1-piperazinyl)pyridine] were, in that order, 97.7 nM and 525 nM.
Compound `FC(F)(F)c1cccc(N2CCNCC2)c1` [TFMPP] returned an inhibition constant Ki in assay [1] of 288 nM.
`COc1cc(CC(C)N)c(OC)cc1Br` (stereo not drawn) [2-(4-Bromo-2,5-dimethoxy-phenyl)-1-methyl-ethylamine((-)-DOB)] displayed a Ki in assay [1] of 2.88 nM.
Consider `CC(N)Cn1ccc2cc(F)c(Cl)cc21` (configuration not stated) [NSC_3045226], for which the inhibitory constant (Ki) in assay [2] was determined as 32.4 nM; in assay [1], 0.89 nM.

(Values after BindingDB's records for doi:10.1038/sj.bjp.0702751 (Cerebrus, 1999).)
